Measurements from PubChem BioAssay AID1963837 (Molecular Pharmacology Branch, DTP, NCI, 2024).

Tested on: 843126-344-R-J1-PDC complex spheroid viability
Test: Anticancer human tumor 843126-344-R-J1-PDC patient-derived melanoma cell line growth inhibition [POLQ]
Conditions: for IC50: curve of first compound; for viability, T/C: stronger effect = lower value
Method in brief: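 Patient-derived tumour cells were co-cultured with HUVEC and mesenchymal stem cells as multicellular spheroids at 37 °C. They were treated with POLQ inhibitors (novobiocin, ART-558, RP6685) alone or combined with other agents. Top concentrations were at or near clinical Cmax (otherwise 10 microM; SN-38 at 1 microM), decreasing in half-log steps.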

[1] = second compound 0.0316 µM, first compound 0.0316 µM
[2] = second compound 0.0316 µM, first compound 0.1 µM
[3] = second compound 0.0316 µM, first compound 0.316 µM
[4] = second compound 0.0316 µM, first compound 1 µM
[5] = second compound 0.0316 µM, first compound 3.16 µM
[6] = second compound 0.0316 µM, first compound 10 µM
[7] = second compound 0.1 µM, first compound 0.0316 µM
[8] = second compound 0.1 µM, first compound 0.1 µM
[9] = second compound 0.1 µM, first compound 0.316 µM
[10] = second compound 0.1 µM, first compound 1 µM
[11] = second compound 0.1 µM, first compound 3.16 µM
[12] = second compound 0.1 µM, first compound 10 µM
[13] = second compound 0.316 µM, first compound 0.0316 µM
[14] = second compound 0.316 µM, first compound 0.1 µM
[15] = second compound 0.316 µM, first compound 0.316 µM
[16] = second compound 0.316 µM, first compound 1 µM
[17] = second compound 0.316 µM, first compound 3.16 µM
[18] = second compound 0.316 µM, first compound 10 µM
[19] = second compound 1 µM, first compound 0.0316 µM
[20] = second compound 1 µM, first compound 0.1 µM
[21] = second compound 1 µM, first compound 0.316 µM
[22] = second compound 1 µM, first compound 1 µM
[23] = second compound 1 µM, first compound 3.16 µM
[24] = second compound 1 µM, first compound 10 µM
[25] = second compound 3.16 µM, first compound 0.0316 µM
[26] = second compound 3.16 µM, first compound 0.1 µM
[27] = second compound 3.16 µM, first compound 0.316 µM
[28] = second compound 3.16 µM, first compound 1 µM
[29] = second compound 3.16 µM, first compound 3.16 µM
[30] = second compound 3.16 µM, first compound 10 µM
[31] = second compound 10 µM, first compound 0.0316 µM
[32] = second compound 10 µM, first compound 0.1 µM
[33] = second compound 10 µM, first compound 0.316 µM
[34] = second compound 10 µM, first compound 1 µM
[35] = second compound 10 µM, first compound 3.16 µM
[36] = second compound 10 µM, first compound 10 µM
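Wherever viability, T/C is given: spheroids exposed to drugs for seven days before readout.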

CC(C)n1c(=O)n(C)c2cnc3cc(F)c(-c4ccc(OCCCN5CCCCC5)nc4)cc3c21 + Cc1cccc(N(C)C(=O)C2C(O)CCN2c2nc(C)cc(C(F)(F)F)c2C#N)c1
IC50 (second compound 0.0316 µM): > 10000 nM | IC50 (second compound 0.1 µM): > 10000 nM | IC50 (second compound 0.316 µM): > 10000 nM | IC50 (second compound 1 µM): > 10000 nM | IC50 (second compound 3.16 µM): > 10000 nM | IC50 (second compound 10 µM): > 10000 nM | viability, T/C [1]: 100% | viability, T/C [2]: 87.7% | viability, T/C [3]: 97.2% | viability, T/C [4]: 78.7% | viability, T/C [5]: 93% | viability, T/C [6]: 60.5% | viability, T/C [7]: 90.1% | viability, T/C [8]: 104% | viability, T/C [9]: 72.7% | viability, T/C [10]: 83.1% | viability, T/C [11]: 78.1% | viability, T/C [12]: 67.1% | viability, T/C [13]: 92% | viability, T/C [14]: 96.9% | viability, T/C [15]: 88.7% | viability, T/C [16]: 89.8% | viability, T/C [17]: 87.2% | viability, T/C [18]: 55.1% | viability, T/C [19]: 98.3% | viability, T/C [20]: 78% | viability, T/C [21]: 86.7% | viability, T/C [22]: 78.5% | viability, T/C [23]: 81% | viability, T/C [24]: 64.3% | viability, T/C [25]: 94.8% | viability, T/C [26]: 84.5% | viability, T/C [27]: 106% | viability, T/C [28]: 99.1% | viability, T/C [29]: 91.9% | viability, T/C [30]: 73.1% | viability, T/C [31]: 93.4% | viability, T/C [32]: 90.2% | viability, T/C [33]: 89.1% | viability, T/C [34]: 77.9% | viability, T/C [35]: 81.9% | viability, T/C [36]: 61.2%

COc1cccc2c1C(=O)c1c(O)c3c(c(O)c1C2=O)CC(O)(C(=O)CO)CC3OC1CC(N)C(O)C(C)O1 (stereo not drawn) + Cc1cccc(N(C)C(=O)C2C(O)CCN2c2nc(C)cc(C(F)(F)F)c2C#N)c1
IC50 (second compound 0.0316 µM): 178 nM | IC50 (second compound 0.1 µM): 245 nM | IC50 (second compound 0.316 µM): 168 nM | IC50 (second compound 1 µM): 204 nM | IC50 (second compound 3.16 µM): 184 nM | IC50 (second compound 10 µM): 152 nM | viability, T/C [1]: 92.8% | viability, T/C [2]: 62.1% | viability, T/C [3]: 39.9% | viability, T/C [4]: 11% | viability, T/C [5]: 3.5% | viability, T/C [6]: 3.68% | viability, T/C [7]: 87.9% | viability, T/C [8]: 72.7% | viability, T/C [9]: 45.2% | viability, T/C [10]: 9.74% | viability, T/C [11]: 4.9% | viability, T/C [12]: 3.68% | viability, T/C [13]: 92.7% | viability, T/C [14]: 60.7% | viability, T/C [15]: 38.6% | viability, T/C [16]: 10.6% | viability, T/C [17]: 3.96% | viability, T/C [18]: 3.01% | viability, T/C [19]: 90.8% | viability, T/C [20]: 69.5% | viability, T/C [21]: 39.7% | viability, T/C [22]: 7.4% | viability, T/C [23]: 3.66% | viability, T/C [24]: 3.67% | viability, T/C [25]: 74.3% | viability, T/C [26]: 64% | viability, T/C [27]: 37.2% | viability, T/C [28]: 5.9% | viability, T/C [29]: 3.46% | viability, T/C [30]: 3.96% | viability, T/C [31]: 68.8% | viability, T/C [32]: 63.3% | viability, T/C [33]: 26.3% | viability, T/C [34]: 4.4% | viability, T/C [35]: 3.99% | viability, T/C [36]: 3.14%

CNCc1ccc(-c2[nH]c3cc(F)cc4c3c2CCNC4=O)cc1 + Cc1cccc(N(C)C(=O)C2C(O)CCN2c2nc(C)cc(C(F)(F)F)c2C#N)c1
IC50 (second compound 0.0316 µM): > 10000 nM | IC50 (second compound 0.1 µM): > 10000 nM | IC50 (second compound 0.316 µM): > 10000 nM | IC50 (second compound 1 µM): > 10000 nM | IC50 (second compound 3.16 µM): > 10000 nM | IC50 (second compound 10 µM): > 10000 nM | viability, T/C [1]: 76.6% | viability, T/C [2]: 84.1% | viability, T/C [3]: 75.3% | viability, T/C [4]: 91% | viability, T/C [5]: 79.4% | viability, T/C [6]: 79.2% | viability, T/C [7]: 84.7% | viability, T/C [8]: 77% | viability, T/C [9]: 95.7% | viability, T/C [10]: 73.5% | viability, T/C [11]: 87.3% | viability, T/C [12]: 64.5% | viability, T/C [13]: 85.3% | viability, T/C [14]: 98% | viability, T/C [15]: 82.6% | viability, T/C [16]: 90.2% | viability, T/C [17]: 77.3% | viability, T/C [18]: 69.7% | viability, T/C [19]: 68.9% | viability, T/C [20]: 87.2% | viability, T/C [21]: 95.7% | viability, T/C [22]: 82.4% | viability, T/C [23]: 94.6% | viability, T/C [24]: 64.3% | viability, T/C [25]: 79.8% | viability, T/C [26]: 83.4% | viability, T/C [27]: 83.6% | viability, T/C [28]: 85.2% | viability, T/C [29]: 87.5% | viability, T/C [30]: 72.9% | viability, T/C [31]: 82.5% | viability, T/C [32]: 76.9% | viability, T/C [33]: 76.9% | viability, T/C [34]: 90.5% | viability, T/C [35]: 88.3% | viability, T/C [36]: 74.9%

Nc1ccn(C2OC(CO)C(O)C2(F)F)c(=O)n1 (stereo not drawn) + Cc1cccc(N(C)C(=O)C2C(O)CCN2c2nc(C)cc(C(F)(F)F)c2C#N)c1
IC50 (second compound 0.0316 µM): < 31.6 nM | IC50 (second compound 0.1 µM): < 31.6 nM | IC50 (second compound 0.316 µM): < 31.6 nM | IC50 (second compound 1 µM): < 31.6 nM | IC50 (second compound 3.16 µM): < 31.6 nM | IC50 (second compound 10 µM): < 31.6 nM | viability, T/C [1]: 47.1% | viability, T/C [2]: 50.2% | viability, T/C [3]: 30.6% | viability, T/C [4]: 45.5% | viability, T/C [5]: 42.4% | viability, T/C [6]: 43% | viability, T/C [7]: 48.9% | viability, T/C [8]: 44% | viability, T/C [9]: 40.9% | viability, T/C [10]: 51.4% | viability, T/C [11]: 44.5% | viability, T/C [12]: 32.9% | viability, T/C [13]: 42.3% | viability, T/C [14]: 45.2% | viability, T/C [15]: 37.4% | viability, T/C [16]: 44.8% | viability, T/C [17]: 43.2% | viability, T/C [18]: 38.3% | viability, T/C [19]: 37.9% | viability, T/C [20]: 44.5% | viability, T/C [21]: 37.6% | viability, T/C [22]: 47.7% | viability, T/C [23]: 35.9% | viability, T/C [24]: 41.5% | viability, T/C [25]: 38.7% | viability, T/C [26]: 43.6% | viability, T/C [27]: 44% | viability, T/C [28]: 49.3% | viability, T/C [29]: 34.9% | viability, T/C [30]: 36.6% | viability, T/C [31]: 40.6% | viability, T/C [32]: 41.6% | viability, T/C [33]: 40.7% | viability, T/C [34]: 45.1% | viability, T/C [35]: 43.5% | viability, T/C [36]: 37.8%
